# Results from patent publication US7105506B2, “Tetracyclic compounds as PDE5-inhibitors” (Lilly Icos LLC, priority 2001, dated 2006).
# pIC50: −log10 of the molar value.
# Biological target: T1, recombinant human PDE5 (Homo sapiens, UniProt O76074)
# T1 construct: host or cells: Saccharomyces cerevisiae protease-deficient strain BJ2-54 (ATCC 74465)
# Test: PDE5 inhibition (cGMP-PDE one-step assay)
# Type: biochemical
# Details: In vitro
# Procedure: The compounds of structural formula (I) were tested for an ability to inhibit PDE5. The ability of a compound to inhibit PDE5 activity is related to the IC50 value for the compound, i.e., the concentration of inhibitor required for 50% inhibition of enzyme activity. The IC50 value for compounds of structural formula (I) were determined using recombinant human PDE5.
# Phosphodiesterase activity of the preparations was determined as follows. PDE assays utilizing a charcoal separation technique were performed essentially as described in Loughney et al. (1996). In this assay, PDE activity converts [32P]cAMP or [32P]cGMP to the corresponding [32P]5′-AMP or [32P]5′-GMP in proportion to the amount of PDE activity present. The [32P]5′-AMP or [32P]5′-GMP then was quantitatively converted to free [32P]phosphate and unlabeled adenosine or guanosine by the action of snake venom 5′-nucleotidase. […] The assay was performed at 30° C. in a 100 μL reaction mixture containing (final concentrations) 40 mM iris HCl (pH 8.0), 1 μM ZnSO4, 5 mM MgCl2, and 0.1 mg/mL bovine serum albumin (BSA). PDE enzyme was present in quantities that yield <30% total hydrolysis of substrate (linear assay conditions). The assay was initiated by addition of substrate ([…] [^32P]cAMP or cGMP), and the mixture was incubated for 12 minutes. Seventy-five (75) […] of Crotalus atrox venom then was added, and the incubation was continued for 3 minutes (15 minutes total). The reaction was stopped by addition of 200 μL of activated charcoal (25 mg/mL suspension in 0.1 M NaH2PO4, pH 4). After centrifugation. (750×g for 3 minutes) to sediment the charcoal, a sample of the supernatant was taken for radioactivity determination in a scintillation counter and the PDE activity was calculated.
# cGMP-PDE activity of compounds of the present invention was measured using a one-step assay adapted from Wells et al., Biochim. Biophys. Acta, 384, 430 (1975). The reaction medium contained 50 mM Tris-HCl, pH 7.5, 5 mM magnesium acetate, 250 μg/ml 5′-Nucleotidase, 1 mM EGTA, and 0.15 μM 8-[H^3]-cGMP. Unless otherwise indicated, the enzyme used was a human recombinant PDE5 (ICOS Corp., Bothell, Wash.).
# Compounds of the invention were dissolved in DMSO finally present at 2% in the assay.
row,Compound,pIC50
1,"CN1CC(=O)N2[C@H](Cc3c([nH]c4ccccc34)[C@@]2(O)c2ccc3c(c2)OCO3)C1=O [Example 5, (6S,12aR)-6-Benzo[1,3]dioxol-5-yl-6-hydroxy-2-methyl-2,3,6,7,12,12a-hexahydropyrzino[1′,2′:1,6]pyrido[3,4-b]indole-1,4-dione]",6.85
2,"CN1CC(=O)N2[C@H](c3ccc4c(c3)OCO4)c3[nH]c4ccccc4c3[C@@H](c3ccccc3)[C@@H]2C1=O (racemic) [Example 3, (+−, 6,12a cis-12,12a-trans)-6-Benzo-(1,3)-dioxol-5-yl-methyl-12-phenyl-2,3,6,7,12,12a-hexahydro-pyrazino[1′,2′:1,6]pyrido[3,4-b]indole-1,4-dione]",7.33
3,"CN1CC(=O)N2[C@H](c3ccc4c(c3)OCO4)c3[nH]c4ccccc4c3C[C@]2(C)C1=O [Example 1, (6R,12aR)-6-Benzo[1,3]dioxol-5-yl-2,12a-dimethyl-2,3,6,7,12,12a-hexahydro-pyrazino-[1,2′:1,6]pyrido[3,4-b]indole-1,4-dione]",7.34

# The remaining lines, values ahead:
row,pIC50,Compound
1,6.59,"CN1CC(=O)N2[C@H](Cc3c([nH]c4ccccc34)[C@]2(C)c2ccc3c(c2)OCO3)C1=O [Example 2b, (+−, trans)-6-Benzo[1,3]dioxol-5-yl-2,6-dimethyl-2,3,6,7,12,12a-hexahydropyrazino-[1′,2′:1,6]pyrido[3,4-b]indole-1,4-dione]"
2,7.20,"C[C@@H]1c2c([nH]c3ccccc23)[C@H](c2ccc3c(c2)OCO3)N2C(=O)CN(C)C(=O)[C@@H]12 (racemic) [Example 4b, (+−, trans, trans methyl)-6-Benzo[1,3]dioxol-5-yl-2,12-dimethyl-2,3,6,7,12,12a-hexahydropyrazino[1′,2′:1,6]pyrido[3,4-b]indole-1,3-dione]"
3,6.16,"CN1CC(=O)N2[C@H](Cc3c([nH]c4ccccc34)[C@@]2(C)c2ccc3c(c2)OCO3)C1=O [Example 2a, (+−, Cis)-6-Benzo[1,3]dioxol-5-yl-2,6-dimethyl-2,3,6,7,12,12a-hexahydropyrazino-[1′,2′:1,6]pyrido[3,4-b]indole-1,4-dione]"
4,8.40,"C[C@@H]1c2c([nH]c3ccccc23)[C@@H](c2ccc3c(c2)OCO3)N2C(=O)CN(C)C(=O)[C@@H]12 (racemic) [Example 4a, (+−, cis, trans methyl)-6-Benzo[1,3]dioxol-5-yl-2,12-dimethyl-2,3,6,7,12,12a-hexahydropyrazino[1′,2′:1,6]pyrido[3,4-b]indole-1,3-dione]"
